ChEMBL document CHEMBL1201862, “PubChem BioAssay data set” (2004)
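Tested at 5 concentrations; 48 h exposure; 96-well plates; endpoints linearly interpolated, else capped at highest concentration. Abbreviation: GI50, concentration required for 50% inhibition of growth.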 Active and inactive are the calls of the source. Rule as the data show it: active = GI50 up to about 1.1 µM and inactive = higher.

Tests used:
Test in all cases: NCI tumour cell line growth inhibition, 48 h
KM-20L2 = test system: KM-20L2
OVCAR-5 = test system: OVCAR-5
DMS-114 = test system: DMS-114
CCRF-CEM = test system: CCRF-CEM
SF-295 = test system: SF-295
786-0 = test system: 786-0
OVCAR-8 = test system: OVCAR-8
MOLT-4 = test system: MOLT-4
OVCAR-4 = test system: OVCAR-4
SNB-19 = test system: SNB-19
DLD-1 = test system: DLD-1
IGROV-1 = test system: IGROV-1
SK-MEL-28 = test system: SK-MEL-28
RPMI-8226 = test system: RPMI-8226
NCI-H23 = test system: NCI-H23
HL-60 = test system: HL-60
CAKI-1 = test system: CAKI-1
HCT-15 = test system: HCT-15
SNB-78 = test system: SNB-78
HOP-92 = test system: HOP-92
A498 = test system: A498
A549 = test system: A549
SF-268 = test system: SF-268
SK-MEL-2 = test system: SK-MEL-2
NCI-H522 = test system: NCI-H522
U-251 = test system: U-251
ACHN = test system: ACHN
LXFL 529 = test system: LXFL 529
HCT-116 = test system: HCT-116
Malme-3M = test system: Malme-3M
SN12C = test system: SN12C
SF-539 = test system: SF-539
DMS-273 = test system: DMS-273
SNB-75 = test system: SNB-75
SW-620 = test system: SW-620
COLO 205 = test system: COLO 205
NCI-H226 = test system: NCI-H226
EKVX = test system: EKVX
NCI-H460 = test system: NCI-H460
UACC-257 = test system: UACC-257
HOP-18 = test system: HOP-18
UACC-62 = test system: UACC-62
SK-MEL-5 = test system: SK-MEL-5
SK-OV-3 = test system: SK-OV-3
HT-29 = test system: HT-29
K562 = test system: K562
RXF 393 = test system: RXF 393
UO-31 = test system: UO-31
SR = test system: SR
OVCAR-3 = test system: OVCAR-3
KM12 = test system: KM12
M19-MEL = test system: M19-MEL
M14 = test system: M14
HOP-62 = test system: HOP-62
HCC 2998 = test system: HCC 2998
XF498 = test system: XF498
TK-10 = test system: TK-10
LOX IMVI = test system: LOX IMVI

With `Cc1ccccc1-n1c(=O)sc2c(=O)n(-c3ccccc3)c(=S)[nH]c21` the GI50 (KM-20L2) was > 100 µM (inactive), the GI50 (OVCAR-5) was 95.5 µM (inactive) and the GI50 (DMS-114) was 56.2 µM (inactive). The GI50 (CCRF-CEM) was 47.3 µM (inactive), the GI50 (SF-295) was > 100 µM (inactive) and the GI50 (786-0) was > 100 µM (inactive). For the same molecule, the GI50 (OVCAR-8) was > 100 µM (inactive), the GI50 (MOLT-4) was > 100 µM (inactive) and the GI50 (OVCAR-4) was > 100 µM (inactive). The GI50 (SNB-19) was > 100 µM (inactive), the GI50 (DLD-1) was > 100 µM (inactive) and the GI50 (IGROV-1) was > 100 µM (inactive). The GI50 (SK-MEL-28) was > 100 µM (inactive), the GI50 (RPMI-8226) was > 100 µM (inactive) and the GI50 (NCI-H23) was > 100 µM (inactive). The GI50 (HL-60) was > 100 µM (inactive), the GI50 (CAKI-1) was > 100 µM (inactive) and the GI50 (HCT-15) was over 100 µM. The GI50 (SNB-78) was > 100 µM (inactive), the GI50 (HOP-92) was > 100 µM (inactive) and the GI50 (A498) was > 100 µM (inactive). For the same molecule, the GI50 (A549) was > 100 µM (inactive), the GI50 (SF-268) was > 100 µM (inactive) and the GI50 (SK-MEL-2) was > 100 µM (inactive). For the same molecule, the GI50 (NCI-H522) was 42.6 µM (inactive), the GI50 (U-251) was > 100 µM (inactive) and the GI50 (ACHN) was > 100 µM (inactive). The GI50 (LXFL 529) was > 100 µM (inactive), the GI50 (HCT-116) was > 100 µM (inactive) and the GI50 (Malme-3M) was > 100 µM (inactive). For the same molecule, the GI50 (SN12C) was > 100 µM (inactive), the GI50 (SF-539) was > 100 µM (inactive) and the GI50 (DMS-273) was > 100 µM (inactive). The GI50 (SNB-75) was > 100 µM (inactive), the GI50 (SW-620) was > 100 µM (inactive) and the GI50 (COLO 205) was > 100 µM (inactive). For the same molecule, the GI50 (NCI-H226) was > 100 µM (inactive), the GI50 (EKVX) was > 100 µM (inactive) and the GI50 (NCI-H460) was > 100 µM (inactive). For the same molecule, the GI50 (UACC-257) was > 100 µM (inactive), the GI50 (HOP-18) was > 100 µM (inactive) and the GI50 (UACC-62) was > 100 µM (inactive). For the same molecule, the GI50 (SK-MEL-5) was > 100 µM (inactive), the GI50 (SK-OV-3) was > 100 µM (inactive) and the GI50 (HT-29) was > 100 µM (inactive). For the same molecule, the GI50 (K562) was > 100 µM (inactive), the GI50 (RXF 393) was > 100 µM (inactive) and the GI50 (UO-31) was > 100 µM (inactive). For the same molecule, the GI50 (SR) was > 100 µM (inactive), the GI50 (OVCAR-3) was > 100 µM (inactive) and the GI50 (KM12) was > 100 µM (inactive). The GI50 (M19-MEL) was > 100 µM (inactive), the GI50 (M14) was > 100 µM (inactive) and the GI50 (HOP-62) was > 100 µM (inactive). For the same molecule, the GI50 (HCC 2998) was > 100 µM (inactive).
For `CCCCNS(=O)(=O)c1ccc(-c2ccc3c(c2)-c2ccc(S(=O)(=O)NCCCC)cc2S3(=O)=O)cc1`, the GI50 (KM-20L2) was 4.15 µM (inactive), the GI50 (OVCAR-5) was > 100 µM (inactive) and the GI50 (DMS-114) was 7.52 µM (inactive). The GI50 (CCRF-CEM) was 26.1 µM (inactive), the GI50 (SF-295) was 15 µM (inactive) and the GI50 (786-0) was 11.6 µM (inactive). The GI50 (OVCAR-8) was 7.98 µM (inactive), the GI50 (MOLT-4) was > 100 µM (inactive) and the GI50 (OVCAR-4) was 2.65 µM (inactive). The GI50 (DLD-1) was 43.6 µM (inactive), the GI50 (IGROV-1) was 32.8 µM (inactive) and the GI50 (SK-MEL-28) was 10 µM (inactive). For the same molecule, the GI50 (RPMI-8226) was 27.9 µM (inactive), the GI50 (NCI-H23) was 12.7 µM (inactive) and the GI50 (HL-60) was > 100 µM (inactive). For the same molecule, the GI50 (HCT-15) was 72.8 µM, the GI50 (SNB-78) was 12.4 µM (inactive) and the GI50 (HOP-92) was 19.3 µM (inactive). The GI50 (A498) was 11.4 µM (inactive), the GI50 (XF498) was 10.3 µM (inactive) and the GI50 (A549) was 14 µM (inactive). For the same molecule, the GI50 (SF-268) was 9.48 µM (inactive), the GI50 (SK-MEL-2) was 12.9 µM (inactive) and the GI50 (NCI-H522) was 14.5 µM (inactive). For the same molecule, the GI50 (TK-10) was 28.8 µM (inactive), the GI50 (U-251) was 23 µM (inactive) and the GI50 (ACHN) was 21.6 µM (inactive). The GI50 (LXFL 529) was 13.2 µM (inactive), the GI50 (HCT-116) was 14.9 µM (inactive) and the GI50 (Malme-3M) was 14.9 µM (inactive). For the same molecule, the GI50 (SF-539) was 12.1 µM (inactive), the GI50 (DMS-273) was 20 µM (inactive) and the GI50 (SW-620) was 15.2 µM (inactive). For the same molecule, the GI50 (COLO 205) was 25.3 µM (inactive), the GI50 (NCI-H226) was 12.6 µM (inactive) and the GI50 (EKVX) was 39.4 µM (inactive). The GI50 (NCI-H460) was 10.4 µM (inactive), the GI50 (UACC-257) was 13.1 µM (inactive) and the GI50 (HOP-18) was 20.7 µM (inactive). The GI50 (UACC-62) was 13.2 µM (inactive), the GI50 (SK-MEL-5) was 2.18 µM (inactive) and the GI50 (SK-OV-3) was 16.9 µM (inactive). For the same molecule, the GI50 (HT-29) was 19.2 µM (inactive), the GI50 (K562) was 3.03 µM (inactive) and the GI50 (RXF 393) was 10.8 µM (inactive). For the same molecule, the GI50 (UO-31) was 42.5 µM (inactive), the GI50 (LOX IMVI) was 15 µM (inactive) and the GI50 (SR) was 72.1 µM (inactive). The GI50 (OVCAR-3) was 24.9 µM (inactive), the GI50 (KM12) was 22.9 µM (inactive) and the GI50 (M19-MEL) was 21.5 µM (inactive). The GI50 (M14) was 17.3 µM (inactive), the GI50 (HOP-62) was 14.9 µM (inactive) and the GI50 (HCC 2998) was > 100 µM (inactive).
